Assay results as given in paper PMC7484762 (2020).

Tests used:
[1] = system: 79-nt RNA ending at A79 (RNA, riboswitch) UAUCAGUUAUAUGACUGACGGAACGUGGAAUUAACCACAUGAAGUAUAACGAUGACAAUGCCGACCGUCUGGGCGAACA; experiment: ITC; details: 150 mM KCl, 10 mM MgCl2; 50 mM HEPES-KOH pH 7.4, 37 °C; apparent; exact value in Supplementary Figure 1b
[2] = system: WT (ligated F. ulcerans ZTP riboswitch with 3' tether, annealed to biotin-DNA-Cy5) (DNA:RNA, riboswitch) UAUCAGUUAUAUGACUGACGGAACGUGGAAUUAACCACAUGAAGUAUAACGAUGACAAUGCCGACCGUCUGGGCGAACAAGCCUAGAUUGUCGGUUCAUUAGCGGUAUUCCGGAAUUGCCGUAAUCGCG/CGCGATTACGGCAATTCCGGAATACCGCTAATG; experiment: smFRET; details: 150 mM KCl, 10 mM MgCl2; 50 mM HEPES-KOH pH 7.4; thermally refolded with 1 mM ZMP, ~10% bound; vectorially folded 38%
[3] = system: 81-83, 92-94A (ligated, with 3' tether, annealed to biotin-DNA-Cy5) (DNA:RNA, riboswitch) UAUCAGUUAUAUGACUGACGGAACGUGGAAUUAACCACAUGAAGUAUAACGAUGACAAUGCCGACCGUCUGGGCGAACAAAAAUAGAUUGUAAAUUCAUUAGCGGUAUUCCGGAAUUGCCGUAAUCGCG/CGCGATTACGGCAATTCCGGAATACCGCTAATG; experiment: smFRET; details: 150 mM KCl, 10 mM MgCl2; 50 mM HEPES-KOH pH 7.4; thermally refolded; majority binds
[4] = system: 92-94A (ligated, with 3' tether, annealed to biotin-DNA-Cy5) (DNA:RNA, riboswitch) UAUCAGUUAUAUGACUGACGGAACGUGGAAUUAACCACAUGAAGUAUAACGAUGACAAUGCCGACCGUCUGGGCGAACAAGCCUAGAUUGUAAAUUCAUUAGCGGUAUUCCGGAAUUGCCGUAAUCGCG/CGCGATTACGGCAATTCCGGAATACCGCTAATG; experiment: smFRET; details: 150 mM KCl, 10 mM MgCl2; 50 mM HEPES-KOH pH 7.4; thermally refolded; partially responsive
[5] = system: 81-83A (ligated, with 3' tether, annealed to biotin-DNA-Cy5) (DNA:RNA, riboswitch) UAUCAGUUAUAUGACUGACGGAACGUGGAAUUAACCACAUGAAGUAUAACGAUGACAAUGCCGACCGUCUGGGCGAACAAAAAUAGAUUGUCGGUUCAUUAGCGGUAUUCCGGAAUUGCCGUAAUCGCG/CGCGATTACGGCAATTCCGGAATACCGCTAATG; experiment: smFRET after vectorial folding (Rep-X); details: 150 mM KCl, 10 mM MgCl2; 50 mM HEPES pH 7.4; larger bound fraction than WT
[6] = system: Δterm (ligated F. ulcerans ZTP aptamer with 3' tether, annealed to biotin-DNA-Cy5) (DNA:RNA, riboswitch) UAUCAGUUAUAUGACUGACGGAACGUGGAAUUAACCACAUGAAGUAUAACGAUGACAAUGCCGACCGUCUGGGCGUUCAUUAGCGGUAUUCCGGAAUUGCCGUAAUCGCG/CGCGATTACGGCAATTCCGGAATACCGCTAATG; experiment: smFRET titration (TIRF), Langmuir fit; details: 150 mM KCl, 10 mM MgCl2, 50 mM HEPES-KOH pH 7.4, thermally refolded, Pmax 71%, 1.5 μM after vectorial folding

- Kd [1]: ~ 1 μM
- binding [3]: yes
- binding [4]: weak
- binding [5]: yes
SMILES: NC(=O)c1ncn([C@@H]2O[C@H](COP(=O)(O)O)[C@@H](O)[C@H]2O)c1N
- binding [2]: weak
- apparent KD [6]: 1300 nM
